Data taken from patent publication US5985834A, “Nova- and decapeptides in the preparation of a drug for the treatment of aids” (ASTA Medica AG, priority 1993, dated 1999).

System: HIV virus
Test: Screening method for anti-HIV activity (NCI AIDS screening trial, XTT formazan, protection of virus-infected T4 lymphocytes)
Assay type: cell-based
Details: Human immunodeficiency virus 1, CCRF-CEM, infected culture treated, CEM cells, 6-7 days
Description: Description of the Screening Method for Anti-HIV Activity
The process is suitable for locating active substances which are effective in all phases of the virus proliferation cycle. The test principle is based on the destruction of the T4 lymphocytes by the HIV virus.
Small amounts of HIV virus are added to the cell cultures. At least two complete viral reproduction cycles are needed to destroy the T4 lymphocytes and to be able to evaluate the results.
Active substances that react with virions (virus-like particles), cells or with products of the viral genes in order to interact with viral activities and thus block proliferation of the viruses will protect the cells from destruction and lysis.
The test system is automated to permit examination of a large number of cells infected with viruses. Compounds which degenerate, denaturise or that are rapidly metabolised cannot, however, be reliably discovered using the test procedure.
AZT (azidothymidine) and DDC serve as positive controls for the test.
1. T4 lymphocytes (CEM cell line) are mixed with virus in the ratio of virus:cell of ca. 1:0.05 in microtiter plates.
2. […]
5. The individual cell cultures are analysed spectrophotometrically and examined microscopically to detect surviving cells in order to confirm the protective effect. […]
7. The activity of the tested compound is determined. […]

## Cc1cn([C@H]2C[C@H](N=[N+]=[N-])[C@@H](CO)O2)c(=O)[nH]c1=O [AZT, 3'-azido-3'-desoxythymidine]
  EC50: 3.1 nM
